Columns and labels:
Type in all cases: in vivo, Sprague-Dawley rats
[1] = test system: collagen in bladder muscle; assay: Collagen content in bladder muscle (Masson's trichrome) in SCI model; details: 5 mg/kg i.p., day 1 after SCI, vs normal group
[2] = test system: caspase-3; assay: Caspase-3 activation (cleaved caspase-3) in urothelium of SCI model, Western blot; details: day 3 after SCI
[3] = test system: Occludin; assay: Tight junction protein Occludin in bladder of SCI model, Western blot and immunofluorescence
[4] = test system: urinary disturbances caused by spinal cord injury (bladder function); assay: Urinary function (residual urine volume, UBFS, bladder size and weight) in SCI model; details: 5 mg/kg i.p.
Experimental: To be used as a central nerve injury animal model, a traumatic spinal cord injury (SCI) model was prepared (FIG. 1A). Specifically, 230 to 250 g of male adult Sprague-Dawley rats were anesthetized by intraperitoneal injection of chloral hydrate (500 mg/kg), and then the back and neck regions were shaved, and the spinal cord under the back and neck regions was exposed without damaging the dura mater, and a laminectomy was performed at T9 to T10 levels. To stabilize the spine, the spinous processes of T8 and T11 were fixed, and the spine was damaged by free-falling a 10 g weight from a height of 25 mm using an NYU impactor onto the back surface of the exposed spinal cord and then the rats were left in a temperature and humidity-controlled chamber overnight while covering the muscles and skin. After surgery, the rats were subcutaneously injected with a supplement solution (5 ml, lactated ringer) and injected with antibiotics (gentamicin, 5 mg/kg, intramuscular injection) once daily for 5 days. The body weight, remaining food, and the weight of water were confirmed and recorded for all animals, and the bladder was emptied twice daily by passive bladder massage until reflex micturition was established. At this time, a Sham group was a group that was subjected to only laminectomy without damage.
In order to confirm the effect of YJ102 (Chemical Formula 1), a compound of the present disclosure, on urinary disturbances caused by spinal cord injury, immediately after preparing the traumatic spinal cord injury (SCI) model (FIG. 1A) prepared in Example 1 above, YJ102 was dissolved in DMSO, methyl pyrrolidinone, and water (1:1.5:1) and administered intraperitoneally at 5 mg/kg, and then intraperitoneally administered at 24-hour intervals for 7 days from the next day. Thereafter, the effect of improving bladder functions was analyzed through a residual urine volume test and a urinary bladder function score (UBFS). […] Specifically, in order to determine the amount of urine remaining in the bladder after spinal cord injury, bladder extrusion was performed twice a day by applying pressure to the central bottom portion of the lower abdomen using the index and middle fingers to empty the bladder, and the expelled urine was collected in a catheter and its volume was recorded. In addition, the UBFS was assessed daily using a 0-4 point UBFS (0=total loss of function (manual bladder extrusion 3 times a day, bloody urine), 1=partial restoration of UBF (manual extrusion 2 times a day, bloody urine), 2=partial restoration of UBF (partial/complete release of sphincter spasm, manual extrusion once a day, persistently bloody urine), 3=high restoration (manual extrusion once a day, no bloody urine), and 4=normal UBF) as in the reference (Zeng et al., Spinal Cord (2017) 55:834-839).

[5] = test system: microglia (OX-42); assay: Microglial activation in spinal cord of SNI model, OX-42 staining; details: spinal cord L4-L5, 4 weeks after nerve injury
Experimental: To be used as a peripheral nerve injury animal model, a sciatic nerve injury (SNI) model was prepared (FIG. 1C). Specifically, 200 to 220 g of male adult Sprague-Dawley rats were anesthetized by intraperitoneal injection of chloral hydrate (500 mg/kg), and then three terminal branches (tibial, common peroneal, and sural nerves) of the right sciatic nerve were approached, and the tibia nerve and the peroneal nerve were tightly ligated with 4-0 silk, and neurectomy was performed at a distal 3 mm position of the ligation site. At this time, a Sham group was a group that exposed only the sciatic nerve without damage.
To analyze the activation of microglia in the spinal cord, which were known to play an important role in the induction/persistence of neuropathic pain, 4 weeks after nerve injury in the SNI animal model, the spinal cord of 4 and 5 lumbar vertebrae was stained with OX-42 to confirm changes in cell shape and intensity. […] The supernatant was transferred to a new microcentrifuge, the protein concentration was measured using a BCA kit, and samples for Western blot were prepared by adding a 1× sample buffer and boiling for 5 minutes. […]

[6] = test system: bladder wall; assay: Bladder hypertrophy (bladder wall thickness, H&E) in SCI model; details: 5 mg/kg i.p., day 1 after SCI
[7] = test system: inflammatory cytokines and chemokines in bladder tissue; assay: Inflammatory factor expression in bladder of SCI model, RT-PCR and Western blot; details: bladder after SCI
Experimental: In order to confirm the effect of YJ102 (Chemical Formula 1), a compound of the present disclosure, on urinary disturbances caused by spinal cord injury, immediately after preparing the traumatic spinal cord injury (SCI) model (FIG. 1A) prepared in Example 1 above, YJ102 was dissolved in DMSO, methyl pyrrolidinone, and water (1:1.5:1) and administered intraperitoneally at 5 mg/kg, and then intraperitoneally administered at 24-hour intervals for 7 days from the next day. Thereafter, the effect of improving bladder functions was analyzed through a residual urine volume test and a urinary bladder function score (UBFS). At this time, a Vehicle group was administered with the same amount of a solution of DMSO, methyl pyrrolidinone, and water. Specifically, in order to determine the amount of urine remaining in the bladder after spinal cord injury, bladder extrusion was performed twice a day by applying pressure to the central bottom portion of the lower abdomen using the index and middle fingers to empty the bladder, and the expelled urine was collected in a catheter and its volume was recorded. In addition, the UBFS was assessed daily using a 0-4 point UBFS (0=total loss of function (manual bladder extrusion 3 times a day, bloody urine), 1=partial restoration of UBF (manual extrusion 2 times a day, bloody urine), 2=partial restoration of UBF (partial/complete release of sphincter spasm, manual extrusion once a day, persistently bloody urine), 3=high restoration (manual extrusion once a day, no bloody urine), and 4=normal UBF) as in the reference (Zeng et al., Spinal Cord (2017) 55:834-839).
To confirm the effect of YJ102 on the expression of inflammatory factors in the bladder after spinal cord injury, the expression of inflammatory cytokines and chemokines, COX-2, iNOS, IL-6, IL-1β, MIP-1α, MIP-1β, MIP-2a, and Gro-α in bladder tissue was confirmed by RT-PCR analysis and Western blot analysis using the primers in Table 2 above. In addition, even in the Raw 264.7 cell line, the expression was verified by RT-PCR analysis.

CCc1ccc(N(C(=O)COC)c2nc3cc(Cl)ccc3o2)cc1 [YJ102]
collagen content in the bladder muscle [1]: maintained at a level almost similar to that of the normal group
caspase-3 activation [2]: inhibited
reduction in amount of Occludin ([3]; SCI day 1, Western blot): significantly inhibited
reduction in Occludin in the urothelium ([3]; after SCI, immunofluorescence): inhibited
bladder size [4]: significantly reduced
bladder weight [4]: significantly reduced
residual urine volume ([4]; vs Veh, from the first day of administration): significantly reduced
bladder function restoration analysis using the UBFS (printed as residual urine volume) ([4]; vs Vehicle, day 3 and day 7 after SCI): significantly increased
microglia activation changes (OX-42 intensity) [5]: significantly reduced
thickness of lamina propria [6]: significantly reduced
thickness of muscle layer [6]: significantly reduced
thickness of urothelium layer [6]: significantly reduced
expression of COX-2 [7]: significantly reduced
expression of Gro-α [7]: significantly reduced
expression of IL-1β [7]: significantly reduced
expression of IL-6 [7]: significantly reduced
expression of MIP-1B [7]: significantly reduced
expression of MIP-1 a [7]: significantly reduced
expression of MIP-2a [7]: significantly reduced
expression of iNOS [7]: significantly reduced

Reference: patent US20260335293A1, “USE OF NOVEL COMPOUND FOR TREATING INTRACTABLE DISEASES” (YJ CERAPEUTICS INC., priority 2023, published 2026)
